In patent US10098913B2, “Composition of stem cells having highly expressed FAS ligand” (UNIVERSITY OF SOUTHERN CALIFORNIA, priority 2013, dated 2018):
Entries after “also recorded” stand apart in the source; their conditions may differ.

Key:
Fas-L = Fas-L expression in MSCs (western blotting); format: cell-based, mice
Source text: Bone marrow cells were flushed from the bone cavity of femurs and tibias of B6 mice (C57BL/6 J) with about 2% heat inactivated fetal bovine serum (Equitech-Bio, Kerrville, Tex., USA) in PBS, and MSCs positive for CD73, CD90, CD105, CD146, CD166, Sca-1 and SSEA-4, but negative for CD11b, CD31, CD34 and CD45, were obtained as previously described by Liu et al. “Mesenchymal stem cell-based tissue regeneration is governed by recipient T lymphocytes via IFN-γ and TNF-α” Nat Med 2011, 17:1594-1601. The entire content of this publication is incorporated herein by reference. The cells with MSC character were cultured with alpha minimum essential medium (Invitrogen) supplemented with about 20% fetal bovine serum and 2 mM L-glutamine (Invitrogen) in a humidified atmosphere of about 95% air and about 5% CO2 at about 37° C. for about 3 days before co-culture. See Oyajobi et al. “Dual effects of macrophage inflammatory protein-1alpha on osteolysis and tumor burden in the murine 5TGM1 model of myeloma bone disease” Blood 2003, 102:311-319. The entire content of this publication is incorporated herein by reference. Additionally, MSCs, which had no Fas-L, were isolated from generalized lymphoproliferative disease (gld) mice for use in comparative experiments. B6 and gld mice in the same background ([…]) were purchased from the Jackson Laboratory. […]

5TGM1 MM cells [1] = assay: Microcomputed tomography of bone density in MM model mice; format: in vivo; conditions: microcomputed tomography after about 4 weeks; P<0.05
Protocol: A 5TGM1 MM model was conducted in weight-matched, 8-week-old to 10-week-old female bg-nu/nu-xid mice from the Jackson Lab (Bar Harbor, Me., USA). The use of animals for research was approved through the Institutional Ethics Committee/Institutional Review Board of the University of Southern California (protocol #10941). The mice were housed in isolator cages, and autoclaved chow and acidified water were provided ad libitum. Disseminated MM was induced through the intravenous inoculation of about 6×10^6 5TGM1 cells in about 200 μl PBS in bg-nu/nu-xid mice through the tail vein (about 6×10^6/10 g body weight). […]
The cross-sectional volumetric bone mineral density was measured in right femur diaphysis of the mice in each group after about 4 weeks of feeding (for each group, n=6). […] Using two-dimensional images, a region of interest in secondary spongiosa was manually drawn near the endocortical surface, and cancellous bone morphometric parameters including the bone volume relative to the tissue volume (percentage) and the trabecular thickness (millimeters) were assessed. A trained observer blinded to the composition of the different groups and treatments received analyzed the number and surface area of radiolucent lesions.

5TGM1 MM cells [2] = assay: 5TGM1 multiple myeloma model mice: survival and cancroid pearls; format: in vivo
Protocol: A 5TGM1 MM model was conducted in weight-matched, 8-week-old to 10-week-old female bg-nu/nu-xid mice from the Jackson Lab (Bar Harbor, Me., USA). The use of animals for research was approved through the Institutional Ethics Committee/Institutional Review Board of the University of Southern California (protocol #10941). The mice were housed in isolator cages, and autoclaved chow and acidified water were provided ad libitum. Disseminated MM was induced through the intravenous inoculation of about 6×10^6 5TGM1 cells in about 200 μl PBS in bg-nu/nu-xid mice through the tail vein (about 6×10^6/10 g body weight). After tumor cell inoculation, multiple MM model mice were randomized to receive the injection of either MSCs (once, about 1×10^6 MSCs/10 g body weight) via the tail vein (MSC group) or […] (L-PAM; weekly, about 50 μg/10 g body weight) in the abdominal cavity (L-PAM group), as shown in FIG. 1A. See Akiyama et al. “Mesenchymal-stem-cell-induced immunoregulation involves FAS-ligand/FAS-mediated T cell apoptosis” Cell Stem Cell 2012, 10:544-555. The entire content of this publication is incorporated herein by reference. L-Phenylalanine mustard, or L-PAM, otherwise known as melphalan, is used as the standard treatment in older MM patients. See Musto P. et al. “Melphalan: old and new uses of a still master drug for multiple myeloma” Expert Opin Investig Drugs 2007, 16:1467-1487. The entire content of this publication is incorporated herein by reference. MM model mice with no treatment served as the positive control (MM group). Original nude mice with no treatment served as the negative control (Control group). The 6-week survival rates of the mice in different groups were compared. After about 4 weeks of feeding, the cancroid pearls in the neck, tail root and abdominal cavity of the mice in different groups were identified for analysis. […]

5TGM1 MM cells [3] = assay: MM cell metastasis in lungs and kidneys of MM model mice; format: in vivo; conditions: after about 4 weeks
Protocol: A 5TGM1 MM model was conducted in weight-matched, 8-week-old to 10-week-old female bg-nu/nu-xid mice from the Jackson Lab (Bar Harbor, Me., USA). The use of animals for research was approved through the Institutional Ethics Committee/Institutional Review Board of the University of Southern California (protocol #10941). The mice were housed in isolator cages, and autoclaved chow and acidified water were provided ad libitum. Disseminated MM was induced through the intravenous inoculation of about 6×10^6 5TGM1 cells in about 200 μl PBS in bg-nu/nu-xid mice through the tail vein (about 6×10^6/10 g body weight). After tumor cell inoculation, multiple MM model mice were randomized to receive the injection of either MSCs (once, about 1×10^6 MSCs/10 g body weight) via the tail vein (MSC group) or […] (L-PAM; weekly, about 50 μg/10 g body weight) in the abdominal cavity (L-PAM group), as shown in FIG. 1A. See Akiyama et al. “Mesenchymal-stem-cell-induced immunoregulation involves FAS-ligand/FAS-mediated T cell apoptosis” Cell Stem Cell 2012, 10:544-555. The entire content of this publication is incorporated herein by reference. L-Phenylalanine mustard, or L-PAM, otherwise known as melphalan, is used as the standard treatment in older MM patients. […]

[4] = neck, tail root and abdominal cavity, after about 4 weeks, versus MM group

SMILES	expression of Fas-L in MSCs after aspirin treatment (Fas-L)	bone density (BD) in lumbus and collum femoris (5TGM1 MM cells [1])	6-week survival rate (5TGM1 MM cells [2]; MM model mice, MSCs once via tail vein, L-PAM weekly in abdominal cavity, versus untreated MM group, P<0.05)	number of cancroid pearls (5TGM1 MM cells [2]; [4])	size of cancroid pearls (5TGM1 MM cells [2]; [4])	metastasis rate in the kidney tissue (5TGM1 MM cells [3])
CC(=O)Oc1ccccc1C(=O)O [Aspirin, aspirin]	enhanced expression of Fas-L in MSCs					
N[C@@H](Cc1ccc(N(CCCl)CCCl)cc1)C(=O)O [L-PAM, L-Phenylalanine mustard]		MM group was much lower than those of the MSC group, the L-PAM group	prolonged survival compared with the MM group; also recorded: higher than the MM group	no significant difference	smaller compared with the MM group	no significant difference
